This data set in a line: CD measurements of folding in water/TFE mixtures. It counts as physicochemical. Conditions: CD in water/TFE mixtures (>= 2 M TFE), fit with Eq. S11.

The values below come from article PMC3273640 (Journal of Molecular Biology, 2011).

Regarding “Ac-CGWWLALALALALALALALALALALWWA-NH2 [WALP27]”, the folding free energy was determined as 4.8 ± 0.2 kcal/mol. With “Ac-CGWWLALALALALALALALALWWA-NH2 [WALP23]”, the folding free energy is 4.6 ± 0.2 kcal/mol.
